Assay results: patent US20260262643A1, “HERBICIDAL BENZOXAZINES” (FMC CORPORATION, priority 2022, published 2026)

Legend:
ragweed [1] = assay: Test C preemergence; format: in vivo, Ambrosia artemisiifolia; conditions: for Plant response rating, Ragweed: Preemergence; for Ragweed plant response rating: preemergence
Outline: (§1)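 Seeds sown in loam soil–sand blend received a directed preemergence soil spray of test chemical in non-phytotoxic solvent with surfactant; postemergence plants (2–10 cm, one- to two-leaf stage) were sprayed with the same formulation. Greenhouse-held 10 days, then visually rated for injury versus untreated controls, 0 (no effect) to 100 (complete control).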

ryegrass, Italian [2] = assay: Test C preemergence; format: in vivo, Lolium multiflorum; conditions: for Plant response rating, Ryegrass, Italian: Preemergence; for Ryegrass, Italian plant response rating: preemergence
Outline: as §1

blackgrass [3] = assay: Test C preemergence; format: in vivo, Alopecurus myosuroides; conditions: for Plant response rating, Blackgrass: Preemergence; for Blackgrass plant response rating: preemergence
Outline: as §1

wheat [4] = assay: Test C preemergence; format: in vivo, Triticum aestivum; conditions: for Plant response rating, Wheat: Preemergence; for Wheat plant response rating: preemergence
Outline: as §1

soybean [5] = assay: Test C postemergence; format: in vivo, Glycine max; conditions: 10 days
Outline: as §1

corn [6] = assay: Test C postemergence; format: in vivo, Zea mays; conditions: 10 days
Outline: as §1

barnyardgrass [7] = assay: Test C preemergence; format: in vivo, Echinochloa crusgalli; conditions: for Plant response rating, Barnyardgrass: Preemergence; for Barnyardgrass plant response rating: preemergence
Outline: as §1

ragweed [8] = assay: Test C postemergence; format: in vivo, Ambrosia artemisiifolia; conditions: 10 days
Outline: as §1

wheat [9] = assay: Test C postemergence; format: in vivo, Triticum aestivum; conditions: 10 days
Outline: as §1

green foxtail [10] = assay: Test C postemergence; format: in vivo, Setaria viridis; conditions: 10 days
Outline: as §1

oat, wild [11] = assay: Test C postemergence; format: in vivo, Avena fatua; conditions: 10 days
Outline: as §1

corn [12] = assay: Test C preemergence; format: in vivo, Zea mays; conditions: for Plant response rating, Corn: Preemergence; for Corn plant response rating: preemergence
Outline: as §1

barnyardgrass [13] = assay: Test C postemergence; format: in vivo, Echinochloa crusgalli; conditions: 10 days
Outline: as §1

ducksalad = assay: Test D flooded paddy test; format: in vivo, Heteranthera limosa; conditions: 250 g ai/ha, applied to paddy water, visual rating after 13 to 14 days, scale 0 to 100 (0 no effect, 100 complete control)
Outline: (§2)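 Seedlings reached the 2-leaf stage, then pots were flooded to 3 cm over the soil surface. Compound was applied into the water, depth was maintained, and plants stayed in the greenhouse 13 to 14 days before visual scoring (0–100) relative to controls.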

ryegrass, Italian [14] = assay: Test C postemergence; format: in vivo, Lolium multiflorum; conditions: 10 days
Outline: as §1

rice = assay: Test D flooded paddy test; format: in vivo, Oryza sativa; conditions: 250 g ai/ha, applied to paddy water, visual rating after 13 to 14 days, scale 0 to 100 (0 no effect, 100 complete control)
Outline: as §2

kochia [15] = assay: Test C preemergence; format: in vivo, Bassia scoparia; conditions: for Plant response rating, Kochia: Preemergence; for Kochia plant response rating: preemergence
Outline: as §1

pigweed, palmer [16] = assay: Test C preemergence; format: in vivo, Amaranthus palmeri; conditions: for Plant response rating, Pigweed, Palmer: Preemergence
Outline: as §1

sedge, umbrella = assay: Test D flooded paddy test; format: in vivo, Cyperus difformis; conditions: 250 g ai/ha, applied to paddy water, visual rating after 13 to 14 days, scale 0 to 100 (0 no effect, 100 complete control)
Outline: as §2

green foxtail [17] = assay: Test C preemergence; format: in vivo, Setaria viridis; conditions: for Plant response rating, Foxtail, Green: Preemergence; for Foxtail, Green plant response rating: preemergence
Outline: as §1

kochia [18] = assay: Test C postemergence; format: in vivo, Bassia scoparia; conditions: 10 days
Outline: as §1

pigweed, palmer [19] = assay: Test C postemergence; format: in vivo, Amaranthus palmeri; conditions: 10 days
Outline: as §1

galium = assay: Test C postemergence; format: in vivo, Galium aparine; conditions: 10 days
Outline: as §1

barnyardgrass [20] = assay: Test D flooded paddy test; format: in vivo, Echinochloa crus-galli; conditions: 250 g ai/ha, applied to paddy water, visual rating after 13 to 14 days, scale 0 to 100 (0 no effect, 100 complete control)
Outline: as §2

oat, wild [21] = assay: Test C preemergence; format: in vivo, Avena fatua; conditions: for Plant response rating, Oat, Wild: Preemergence; for Oat, Wild plant response rating: preemergence
Outline: as §1

soybean [22] = assay: Test C preemergence; format: in vivo, Glycine max; conditions: for Plant response rating, Soybean: Preemergence; for Soybean plant response rating: preemergence
Outline: as §1

horseweed = assay: Test C postemergence; format: in vivo, Erigeron canadensis; conditions: 10 days
Outline: as §1

blackgrass [23] = assay: Test C postemergence; format: in vivo, Alopecurus myosuroides; conditions: 10 days
Outline: as §1

[24] = 500 g ai/ha, visual rating after 10 days, 0 to 100 scale (0 no effect, 100 complete control)
[25] = Test C, 125 g ai/ha, 0 to 100 scale (0 no effect, 100 complete control)
[26] = 125 g ai/ha, postemergence, 0 to 100 scale, 0 no effect, 100 complete control
[27] = Postemergence, 500 g ai/ha, visual 0 to 100 scale (0 no effect, 100 complete control)
[28] = 500 g ai/ha, 0 to 100 scale (0 no effect, 100 complete control)
[29] = 125 g ai/ha, 0 to 100 scale, 0 no effect, 100 complete control
[30] = 500 g ai/ha, postemergence, 0 to 100 scale (0 no effect, 100 complete control)
[31] = Postemergence, 125 g ai/ha, 0 to 100 scale (0 no effect, 100 complete control)

Question: What does the source list for Cc1cccc2c1O[C@H](C)CN2C(=O)c1cccc(-c2ncn(C(C)C)n2)c1 [Compound 221]?
Answer: Plant response rating, Ragweed (ragweed [1]; [24]): 0; Ragweed plant response rating (ragweed [1]; [25]): 0; Plant response rating, Ryegrass, Italian (ryegrass, Italian [2]; [24]): 0; Ryegrass, Italian plant response rating (ryegrass, Italian [2]; [25]): 0; Plant response rating, Blackgrass (blackgrass [3]; [24]): 0; Blackgrass plant response rating (blackgrass [3]; [25]): 0; Plant response rating, Wheat (wheat [4]; [24]): 0; Wheat plant response rating (wheat [4]; [25]): 0; Plant response rating, Soybean (soybean [5]; [26]): 0; Plant response rating, Soybean (soybean [5]; [27]): 0; Plant response rating, Corn (corn [6]; [26]): 0; Plant response rating, Corn (corn [6]; [27]): 0; Plant response rating, Barnyardgrass (barnyardgrass [7]; [24]): 0; Barnyardgrass plant response rating (barnyardgrass [7]; [25]): 0; Plant response rating, Ragweed (ragweed [8]; [26]): 0; Plant response rating, Ragweed (ragweed [8]; [27]): 0; Plant response rating, Wheat (wheat [9]; [26]): 0; Plant response rating, Wheat (wheat [9]; [27]): 0; Plant response rating, Foxtail, Green (green foxtail [10]; [26]): 0; Plant response rating, Foxtail, Green (green foxtail [10]; [27]): 0; Plant response rating, Oat, Wild (oat, wild [11]; [26]): 0; Plant response rating, Oat, Wild (oat, wild [11]; [27]): 0; Plant response rating, Corn (corn [12]; [24]): 0; Corn plant response rating (corn [12]; [25]): 0; Plant response rating, Barnyardgrass (barnyardgrass [13]; [26]): 0; Plant response rating, Barnyardgrass (barnyardgrass [13]; [27]): 10; Plant response rating, Ducksalad (Flood) (ducksalad): 0; Plant response rating, Ryegrass, Italian (ryegrass, Italian [14]; [26]): 0; Plant response rating, Ryegrass, Italian (ryegrass, Italian [14]; [27]): 0; Plant response rating, Rice (Flood) (rice): 0; Plant response rating, Kochia (kochia [15]; [24]): 0; Kochia plant response rating (kochia [15]; [25]): 0; Plant response rating, Pigweed, Palmer (pigweed, palmer [16]; [24]): 0; Plant response rating, Sedge, Umbrella (Flood) (sedge, umbrella): 0; Plant response rating, Foxtail, Green (green foxtail [17]; [24]): 0; Foxtail, Green plant response rating (green foxtail [17]; [25]): 0; Plant response rating, Kochia (kochia [18]; [26]): 0; Plant response rating, Kochia (kochia [18]; [27]): 0; Plant response rating, Pigweed, Palmer (pigweed, palmer [19]; [26]): 0; Plant response rating, Pigweed, Palmer (pigweed, palmer [19]; [27]): 0; Plant response rating, Galium (galium; [26]): 0; Plant response rating, Galium (galium; [27]): 0; Plant response rating, Barnyardgrass (Flood) (barnyardgrass [20]): 0; Plant response rating, Oat, Wild (oat, wild [21]; [24]): 0; Oat, Wild plant response rating (oat, wild [21]; [25]): 0; Plant response rating, Soybean (soybean [22]; [24]): 0; Soybean plant response rating (soybean [22]; [25]): 0; Plant response rating, Horseweed (horseweed; [26]): 0; Plant response rating, Horseweed (horseweed; [27]): 20; Plant response rating, Blackgrass (blackgrass [23]; [26]): 0; Plant response rating, Blackgrass (blackgrass [23]; [27]): 0

Question: Which results are given for CCOCC1CN(C(=O)c2cc(-n3cnc(C(C)(C)C)n3)ccc2OC)c2cccc(Cl)c2O1 (stereo not shown) [Compound 379]?
Answer: Ragweed plant response rating (ragweed [1]; [28]): 80; Plant response rating, Ragweed (ragweed [1]; [29]): 0; Ryegrass, Italian plant response rating (ryegrass, Italian [2]; [28]): 90; Plant response rating, Ryegrass, Italian (ryegrass, Italian [2]; [29]): 70; Blackgrass plant response rating (blackgrass [3]; [28]): 0; Plant response rating, Blackgrass (blackgrass [3]; [29]): 0; Wheat plant response rating (wheat [4]; [28]): 40; Plant response rating, Wheat (wheat [4]; [29]): 20; Plant response rating, Soybean (soybean [5]; [30]): 100; Plant response rating, Soybean (soybean [5]; [31]): 100; Plant response rating, Corn (corn [6]; [30]): 50; Plant response rating, Corn (corn [6]; [31]): 30; Barnyardgrass plant response rating (barnyardgrass [7]; [28]): 100; Plant response rating, Barnyardgrass (barnyardgrass [7]; [29]): 60; Plant response rating, Ragweed (ragweed [8]; [30]): 90; Plant response rating, Ragweed (ragweed [8]; [31]): 30; Plant response rating, Wheat (wheat [9]; [30]): 20; Plant response rating, Wheat (wheat [9]; [31]): 10; Plant response rating, Foxtail, Green (green foxtail [10]; [30]): 20; Plant response rating, Foxtail, Green (green foxtail [10]; [31]): 20; Plant response rating, Oat, Wild (oat, wild [11]; [30]): 10; Plant response rating, Oat, Wild (oat, wild [11]; [31]): 0; Corn plant response rating (corn [12]; [28]): 30; Plant response rating, Corn (corn [12]; [29]): 30; Plant response rating, Barnyardgrass (barnyardgrass [13]; [30]): 60; Plant response rating, Barnyardgrass (barnyardgrass [13]; [31]): 30; Plant response rating, Ducksalad (Flood) (ducksalad): 55; Plant response rating, Ryegrass, Italian (ryegrass, Italian [14]; [30]): 50; Plant response rating, Ryegrass, Italian (ryegrass, Italian [14]; [31]): 30; Plant response rating, Rice (Flood) (rice): 15; Kochia plant response rating (kochia [15]; [28]): 100; Plant response rating, Kochia (kochia [15]; [29]): 80; Pigweed, Palmer plant response rating (pigweed, palmer [16]; 500 g ai/ha, preemergence, 0 to 100 scale (0 no effect, 100 complete control)): 100; Plant response rating, Pigweed, Palmer (pigweed, palmer [16]; [29]): 100; Plant response rating, Sedge, Umbrella (Flood) (sedge, umbrella): 65; Foxtail, Green plant response rating (green foxtail [17]; [28]): 100; Plant response rating, Foxtail, Green (green foxtail [17]; [29]): 80; Plant response rating, Kochia (kochia [18]; [30]): 90; Plant response rating, Kochia (kochia [18]; [31]): 90; Plant response rating, Pigweed, Palmer (pigweed, palmer [19]; [30]): 100; Plant response rating, Pigweed, Palmer (pigweed, palmer [19]; [31]): 80; Plant response rating, Galium (galium; [30]): 100; Plant response rating, Galium (galium; [31]): 70; Plant response rating, Barnyardgrass (Flood) (barnyardgrass [20]): 35; Oat, Wild plant response rating (oat, wild [21]; [28]): 80; Plant response rating, Oat, Wild (oat, wild [21]; [29]): 30; Soybean plant response rating (soybean [22]; [28]): 90; Plant response rating, Soybean (soybean [22]; [29]): 90; Plant response rating, Horseweed (horseweed; [30]): 30; Plant response rating, Horseweed (horseweed; [31]): 0; Plant response rating, Blackgrass (blackgrass [23]; [30]): 30; Plant response rating, Blackgrass (blackgrass [23]; [31]): 30
